From article PMC6120666 (The EMBO Journal, 2018)

How the values were obtained:
Test in all cases: Drug affinity chromatography with c-ponatinib and LC-MS/MS (ponatinib interactome)
Format in all cases: binding
[1] = biological target: T1, proteins of U2OS cell lysate (Homo sapiens, UniProt P34913); settings: EPHX2, Bifunctional epoxide hydrolase 2
T1 construct: Proteins enriched by c-ponatinib from U2OS cell lysate; endogenous in cells; host or cells: U2OS cell lysate
Procedure, shortened: (§1)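 U2OS cell lysate in NP-40 lysis buffer (2 mg protein per pulldown) was incubated with amine-derivatized NHS beads for 2 h at 4 °C. Bound proteins were washed, eluted with 100 mM formic acid, reduced, alkylated and trypsin-digested, then identified by nano-UPLC–MS/MS on Orbitrap instruments with a 60 min gradient.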

[2] = biological target: T2, proteins of U2OS cell lysate (Homo sapiens, UniProt Q9Y512); settings: SAMM50, Sorting and assembly machinery component 50 homolog
T2 construct: Proteins enriched by c-ponatinib from U2OS cell lysate; endogenous in cells; host or cells: U2OS cell lysate
Procedure, shortened: as §1

[3] = biological target: T3, proteins of U2OS cell lysate (Homo sapiens, UniProt Q09028); settings: RBBP4;RBBP7, Histone-binding protein RBBP4
T3 construct: Proteins enriched by c-ponatinib from U2OS cell lysate; endogenous in cells; host or cells: U2OS cell lysate
Procedure, shortened: as §1

[4] = biological target: T4, proteins of U2OS cell lysate (Homo sapiens, UniProt P35579); settings: MYH9, Myosin-9
T4 construct: Proteins enriched by c-ponatinib from U2OS cell lysate; endogenous in cells; host or cells: U2OS cell lysate
Procedure, shortened: as §1

[5] = biological target: T5, proteins of U2OS cell lysate (Homo sapiens, UniProt P51572); settings: BCAP31, B-cell receptor-associated protein 31
T5 construct: Proteins enriched by c-ponatinib from U2OS cell lysate; endogenous in cells; host or cells: U2OS cell lysate
Procedure, shortened: as §1

[6] = biological target: T6, proteins of U2OS cell lysate (Homo sapiens, UniProt Q14498); settings: RBM39, RNA-binding protein 39
T6 construct: Proteins enriched by c-ponatinib from U2OS cell lysate; endogenous in cells; host or cells: U2OS cell lysate
Procedure, shortened: as §1

[7] = biological target: T7, proteins of U2OS cell lysate (Homo sapiens, UniProt P28070); settings: PSMB4, Proteasome subunit beta type-4
T7 construct: Proteins enriched by c-ponatinib from U2OS cell lysate; endogenous in cells; host or cells: U2OS cell lysate
Procedure, shortened: as §1

[8] = biological target: T8, proteins of U2OS cell lysate (Homo sapiens, UniProt P62854); settings: RPS26;RPS26P11, 40S ribosomal protein S26
T8 construct: Proteins enriched by c-ponatinib from U2OS cell lysate; endogenous in cells; host or cells: U2OS cell lysate
Procedure, shortened: as §1

[9] = biological target: T9, proteins of U2OS cell lysate (Homo sapiens, UniProt P07305); settings: H1F0, Histone H1.0
T9 construct: Proteins enriched by c-ponatinib from U2OS cell lysate; endogenous in cells; host or cells: U2OS cell lysate
Procedure, shortened: as §1

[10] = biological target: T10, proteins of U2OS cell lysate (Homo sapiens, UniProt P07437); settings: TUBB;TUBB2A, Tubulin beta chain
T10 construct: Proteins enriched by c-ponatinib from U2OS cell lysate; endogenous in cells; host or cells: U2OS cell lysate
T10 sequence (P07437 whole entry): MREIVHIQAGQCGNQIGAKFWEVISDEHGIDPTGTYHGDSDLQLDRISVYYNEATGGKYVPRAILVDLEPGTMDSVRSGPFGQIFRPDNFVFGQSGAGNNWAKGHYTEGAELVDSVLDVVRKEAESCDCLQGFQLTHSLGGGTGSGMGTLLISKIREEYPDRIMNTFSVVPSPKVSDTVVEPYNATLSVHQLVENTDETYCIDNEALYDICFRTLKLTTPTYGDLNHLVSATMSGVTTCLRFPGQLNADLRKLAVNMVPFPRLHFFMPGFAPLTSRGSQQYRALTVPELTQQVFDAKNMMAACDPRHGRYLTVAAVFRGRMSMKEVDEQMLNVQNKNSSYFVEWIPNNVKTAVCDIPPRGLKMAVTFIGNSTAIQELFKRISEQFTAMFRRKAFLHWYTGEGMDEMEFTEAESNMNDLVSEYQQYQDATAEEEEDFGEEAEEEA
Procedure, shortened: as §1

[11] = biological target: T11, proteins of U2OS cell lysate (Homo sapiens, UniProt Q9H2K8); settings: TAOK3;TAOK1;TAOK2, Serine/threonine-protein kinase TAO3
T11 construct: Proteins enriched by c-ponatinib from U2OS cell lysate; endogenous in cells; host or cells: U2OS cell lysate
T11 sequence (Q9H2K8 whole entry): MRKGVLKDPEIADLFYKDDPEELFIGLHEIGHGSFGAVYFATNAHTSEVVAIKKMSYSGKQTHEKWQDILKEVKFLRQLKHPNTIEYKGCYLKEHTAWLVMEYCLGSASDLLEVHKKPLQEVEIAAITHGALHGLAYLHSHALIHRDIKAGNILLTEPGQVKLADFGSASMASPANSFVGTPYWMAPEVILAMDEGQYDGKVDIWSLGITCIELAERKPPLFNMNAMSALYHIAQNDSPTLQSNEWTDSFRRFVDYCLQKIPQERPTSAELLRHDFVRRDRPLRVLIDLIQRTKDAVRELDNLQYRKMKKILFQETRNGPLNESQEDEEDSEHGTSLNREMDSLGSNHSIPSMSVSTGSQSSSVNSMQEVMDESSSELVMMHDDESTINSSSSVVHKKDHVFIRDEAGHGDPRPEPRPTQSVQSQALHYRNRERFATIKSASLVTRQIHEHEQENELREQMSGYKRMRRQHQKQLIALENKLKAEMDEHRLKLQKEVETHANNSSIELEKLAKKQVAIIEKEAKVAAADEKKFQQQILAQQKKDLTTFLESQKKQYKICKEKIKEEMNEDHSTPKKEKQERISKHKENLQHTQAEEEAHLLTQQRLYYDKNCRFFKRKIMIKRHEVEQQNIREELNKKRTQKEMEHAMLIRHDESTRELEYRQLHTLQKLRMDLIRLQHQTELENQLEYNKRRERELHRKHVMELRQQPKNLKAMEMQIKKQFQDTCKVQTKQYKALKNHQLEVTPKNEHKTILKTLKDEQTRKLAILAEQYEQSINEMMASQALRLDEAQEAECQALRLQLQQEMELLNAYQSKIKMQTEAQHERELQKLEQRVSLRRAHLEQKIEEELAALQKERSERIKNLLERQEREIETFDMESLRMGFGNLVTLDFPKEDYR
Procedure, shortened: as §1

[12] = biological target: T12, proteins of U2OS cell lysate (Homo sapiens, UniProt O43353); settings: RIPK2, Receptor-interacting serine/threonine-protein kinase 2
T12 construct: Proteins enriched by c-ponatinib from U2OS cell lysate; endogenous in cells; host or cells: U2OS cell lysate
T12 sequence (O43353 whole entry): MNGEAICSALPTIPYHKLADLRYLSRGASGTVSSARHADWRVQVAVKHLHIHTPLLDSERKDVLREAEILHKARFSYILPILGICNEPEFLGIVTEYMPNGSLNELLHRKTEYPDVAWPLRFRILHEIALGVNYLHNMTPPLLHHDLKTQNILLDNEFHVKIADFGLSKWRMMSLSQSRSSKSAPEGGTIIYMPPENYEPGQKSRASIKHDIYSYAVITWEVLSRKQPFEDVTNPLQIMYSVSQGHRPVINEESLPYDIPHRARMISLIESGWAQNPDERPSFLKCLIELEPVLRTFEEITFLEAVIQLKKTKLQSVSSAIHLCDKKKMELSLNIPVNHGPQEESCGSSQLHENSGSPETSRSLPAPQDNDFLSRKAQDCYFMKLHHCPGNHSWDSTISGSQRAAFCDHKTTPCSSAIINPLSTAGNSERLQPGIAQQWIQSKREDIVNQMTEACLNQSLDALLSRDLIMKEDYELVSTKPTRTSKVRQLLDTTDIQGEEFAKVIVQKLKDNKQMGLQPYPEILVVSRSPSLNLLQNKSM
Procedure, shortened: as §1

[13] = biological target: T13, proteins of U2OS cell lysate (Homo sapiens, UniProt P49336); settings: CDK8, Cyclin-dependent kinase 8
T13 construct: Proteins enriched by c-ponatinib from U2OS cell lysate; endogenous in cells; host or cells: U2OS cell lysate
Procedure, shortened: as §1

[14] = biological target: T14, proteins of U2OS cell lysate (Homo sapiens, UniProt Q9NTJ3); settings: SMC4, Structural maintenance of chromosomes protein 4
T14 construct: Proteins enriched by c-ponatinib from U2OS cell lysate; endogenous in cells; host or cells: U2OS cell lysate
T14 sequence (Q9NTJ3 whole entry): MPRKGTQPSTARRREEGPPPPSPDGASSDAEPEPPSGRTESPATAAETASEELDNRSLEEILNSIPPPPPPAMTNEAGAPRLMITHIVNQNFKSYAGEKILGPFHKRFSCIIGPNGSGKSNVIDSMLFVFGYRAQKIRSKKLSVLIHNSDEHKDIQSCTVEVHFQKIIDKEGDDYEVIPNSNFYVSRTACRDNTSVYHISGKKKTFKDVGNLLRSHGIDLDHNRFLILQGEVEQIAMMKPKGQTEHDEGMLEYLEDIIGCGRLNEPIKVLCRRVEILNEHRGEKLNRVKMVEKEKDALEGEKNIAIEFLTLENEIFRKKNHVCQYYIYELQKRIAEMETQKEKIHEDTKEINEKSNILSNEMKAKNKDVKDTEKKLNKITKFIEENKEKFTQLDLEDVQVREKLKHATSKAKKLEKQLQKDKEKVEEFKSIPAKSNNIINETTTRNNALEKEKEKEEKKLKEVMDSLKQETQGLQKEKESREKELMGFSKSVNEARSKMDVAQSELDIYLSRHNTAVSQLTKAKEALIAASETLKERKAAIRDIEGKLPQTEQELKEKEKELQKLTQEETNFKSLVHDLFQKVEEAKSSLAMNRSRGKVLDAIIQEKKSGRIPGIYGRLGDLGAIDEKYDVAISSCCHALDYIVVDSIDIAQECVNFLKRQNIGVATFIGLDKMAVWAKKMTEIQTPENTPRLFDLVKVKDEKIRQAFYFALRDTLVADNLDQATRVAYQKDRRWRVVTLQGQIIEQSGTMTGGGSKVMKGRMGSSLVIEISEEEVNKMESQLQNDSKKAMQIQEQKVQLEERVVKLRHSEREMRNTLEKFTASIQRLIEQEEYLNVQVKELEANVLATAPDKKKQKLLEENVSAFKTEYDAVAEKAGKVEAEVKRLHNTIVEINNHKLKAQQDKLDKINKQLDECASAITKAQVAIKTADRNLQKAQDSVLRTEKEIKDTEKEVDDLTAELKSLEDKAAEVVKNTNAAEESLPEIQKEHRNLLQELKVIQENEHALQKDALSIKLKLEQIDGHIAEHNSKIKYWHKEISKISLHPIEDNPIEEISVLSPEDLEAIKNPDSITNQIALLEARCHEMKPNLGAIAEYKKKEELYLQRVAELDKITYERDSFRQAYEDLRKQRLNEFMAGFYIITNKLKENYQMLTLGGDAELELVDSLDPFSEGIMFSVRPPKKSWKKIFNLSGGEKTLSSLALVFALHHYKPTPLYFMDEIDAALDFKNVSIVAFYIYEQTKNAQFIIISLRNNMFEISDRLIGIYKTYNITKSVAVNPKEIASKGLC
Procedure, shortened: as §1

[15] = biological target: T15, proteins of U2OS cell lysate (Homo sapiens, UniProt P35998); settings: PSMC2, 26S protease regulatory subunit 7
T15 construct: Proteins enriched by c-ponatinib from U2OS cell lysate; endogenous in cells; host or cells: U2OS cell lysate
Procedure, shortened: as §1

[16] = biological target: T16, proteins of U2OS cell lysate (Homo sapiens, UniProt P16083); settings: NQO2, Ribosyldihydronicotinamide dehydrogenase [quinone]
T16 construct: Proteins enriched by c-ponatinib from U2OS cell lysate; endogenous in cells; host or cells: U2OS cell lysate
T16 sequence (P16083 whole entry): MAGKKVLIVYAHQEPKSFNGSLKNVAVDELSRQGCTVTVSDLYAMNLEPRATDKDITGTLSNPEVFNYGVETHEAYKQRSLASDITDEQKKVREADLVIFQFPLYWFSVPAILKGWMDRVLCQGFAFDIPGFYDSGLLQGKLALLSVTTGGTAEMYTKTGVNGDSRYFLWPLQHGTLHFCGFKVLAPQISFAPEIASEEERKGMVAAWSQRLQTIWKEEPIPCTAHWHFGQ
Procedure, shortened: as §1

[17] = biological target: T17, proteins of U2OS cell lysate (Homo sapiens, UniProt P26640); settings: VARS, Valine--tRNA ligase
T17 construct: Proteins enriched by c-ponatinib from U2OS cell lysate; endogenous in cells; host or cells: U2OS cell lysate
T17 sequence (P26640 whole entry): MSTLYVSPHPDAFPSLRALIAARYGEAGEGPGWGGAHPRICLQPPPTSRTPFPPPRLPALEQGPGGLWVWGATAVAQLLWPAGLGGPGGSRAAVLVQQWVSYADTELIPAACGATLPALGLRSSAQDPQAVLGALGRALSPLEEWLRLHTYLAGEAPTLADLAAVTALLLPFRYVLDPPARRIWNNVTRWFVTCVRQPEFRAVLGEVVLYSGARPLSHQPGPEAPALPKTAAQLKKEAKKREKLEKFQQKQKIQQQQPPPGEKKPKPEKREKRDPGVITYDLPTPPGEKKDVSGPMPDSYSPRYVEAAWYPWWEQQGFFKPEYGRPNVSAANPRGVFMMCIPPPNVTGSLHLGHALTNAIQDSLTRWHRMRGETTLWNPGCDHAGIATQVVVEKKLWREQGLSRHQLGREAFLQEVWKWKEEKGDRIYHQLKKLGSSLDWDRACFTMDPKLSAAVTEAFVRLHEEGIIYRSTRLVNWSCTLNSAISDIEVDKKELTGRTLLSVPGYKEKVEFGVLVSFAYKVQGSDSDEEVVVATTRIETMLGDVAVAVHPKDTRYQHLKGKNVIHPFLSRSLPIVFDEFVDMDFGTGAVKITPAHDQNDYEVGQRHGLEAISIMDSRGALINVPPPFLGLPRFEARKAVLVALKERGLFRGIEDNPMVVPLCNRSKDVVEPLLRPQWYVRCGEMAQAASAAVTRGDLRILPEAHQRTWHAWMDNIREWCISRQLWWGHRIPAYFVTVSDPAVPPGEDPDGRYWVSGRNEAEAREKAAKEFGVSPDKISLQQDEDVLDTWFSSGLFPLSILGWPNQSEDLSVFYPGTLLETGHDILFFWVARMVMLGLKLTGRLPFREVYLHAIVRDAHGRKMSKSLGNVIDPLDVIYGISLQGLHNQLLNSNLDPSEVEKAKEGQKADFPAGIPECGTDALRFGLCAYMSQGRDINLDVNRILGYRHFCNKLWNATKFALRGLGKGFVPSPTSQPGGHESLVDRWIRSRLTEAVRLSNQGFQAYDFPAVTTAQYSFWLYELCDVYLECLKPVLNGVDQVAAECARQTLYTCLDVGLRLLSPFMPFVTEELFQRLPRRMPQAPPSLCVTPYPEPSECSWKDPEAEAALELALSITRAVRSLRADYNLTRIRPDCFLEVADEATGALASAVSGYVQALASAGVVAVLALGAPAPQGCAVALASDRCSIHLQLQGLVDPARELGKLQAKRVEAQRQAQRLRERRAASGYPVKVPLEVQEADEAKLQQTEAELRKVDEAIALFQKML
Procedure, shortened: as §1

[18] = biological target: T18, proteins of U2OS cell lysate (Homo sapiens, UniProt P62266); settings: captured protein RPS23, Rank 181
T18 construct: Proteins enriched by c-ponatinib from U2OS cell lysate; endogenous in cells; host or cells: U2OS cell lysate
Procedure, shortened: as §1

[19] = biological target: T19, proteins of U2OS cell lysate (Homo sapiens, UniProt P45880); settings: captured protein VDAC2, Rank 163
T19 construct: Proteins enriched by c-ponatinib from U2OS cell lysate; endogenous in cells; host or cells: U2OS cell lysate
T19 sequence (P45880 whole entry): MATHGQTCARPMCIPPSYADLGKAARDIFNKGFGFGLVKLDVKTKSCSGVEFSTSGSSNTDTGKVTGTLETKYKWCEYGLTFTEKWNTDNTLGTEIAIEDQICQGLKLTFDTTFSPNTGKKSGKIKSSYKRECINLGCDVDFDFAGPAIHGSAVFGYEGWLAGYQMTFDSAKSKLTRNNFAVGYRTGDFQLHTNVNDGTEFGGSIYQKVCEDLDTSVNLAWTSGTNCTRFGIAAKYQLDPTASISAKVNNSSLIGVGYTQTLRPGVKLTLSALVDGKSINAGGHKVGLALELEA
Procedure, shortened: as §1

Compound	Average LFQ PON_WT [1]	Average LFQ PON_WT [2]	Average LFQ PON_WT [3]	Average LFQ PON_WT [4]	Average LFQ PON_WT [5]	Average LFQ PON_WT [6]	Average LFQ PON_WT [7]	Average LFQ PON_WT [8]	Average LFQ PON_WT [9]	Average LFQ PON_WT [10]	Average LFQ PON_WT [11]	Average LFQ PON_WT [12]	Average LFQ PON_WT [13]	Average LFQ PON_WT [14]	Average LFQ PON_WT [15]	Average LFQ PON_WT [16]	Average LFQ PON_WT [17]	Average LFQ intensity [18]	Average LFQ intensity [19]
Cc1ccc(C(=O)Nc2ccc(CN3CCN(C)CC3)c(C(F)(F)F)c2)cc1C#Cc1cnc2cccnn12 [PON]	24.5257	20.9007	21.1647	25.6681	23.9511	20.4989	21.0941	21.6239	21.4215	24.4278	21.1056	27.2483	23.7078	21.2975	21.2631	24.6177	20.4235	–	–
Cc1ccc(C(=O)Nc2ccc(CN3CCN(CCCN)CC3)c(C(F)(F)F)c2)cc1C#Cc1cnc2cccnn12 [c-ponatinib, reference compound]	–	–	–	–	–	–	–	–	–	–	–	–	–	–	–	–	–	22.1736	22.3592
